Test results reported in ChEMBL document CHEMBL1201862, “PubChem BioAssay data set” (2004).
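Cells were grown in 96-well plates and exposed to each compound for 48 hours at five concentrations; endpoints were interpolated linearly between bracketing concentrations, or set to the highest concentration if not reached. Abbreviation: GI50, concentration required for 50% inhibition of growth.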 Active and inactive are the calls of the source. Cut-off read from the data, not from the text of the source: active = GI50 up to about 1.1 µM and inactive = higher.

Columns and labels:
Assay in all cases: DTP human tumour cell line panel, 48 h
[1] = test system: TK-10
[2] = test system: UO-31
[3] = test system: OVCAR-5
[4] = test system: CCRF-CEM
[5] = test system: IGROV-1
[6] = test system: 786-0
[7] = test system: Hs-578T
[8] = test system: SK-OV-3
[9] = test system: UACC-62
[10] = test system: SK-MEL-28
[11] = test system: CAKI-1
[12] = test system: MDA-N
[13] = test system: BT-549
[14] = test system: SF-268
[15] = test system: NCI-H460
[16] = test system: NCI-H226
[17] = test system: COLO 205
[18] = test system: LOX IMVI
[19] = test system: MDA-MB-231
[20] = test system: T47D
[21] = test system: OVCAR-4
[22] = test system: RPMI-8226
[23] = test system: SNB-19
[24] = test system: HL-60
[25] = test system: HCT-15
[26] = test system: NCI-H23
[27] = test system: K562
[28] = test system: MCF7
[29] = test system: KM12
[30] = test system: SF-539
[31] = test system: MDA-MB-435
[32] = test system: SK-MEL-5
[33] = test system: EKVX
[34] = test system: HT-29
[35] = test system: HOP-62
[36] = test system: A549
[37] = test system: HOP-92
[38] = test system: HCC 2998
[39] = test system: SF-295
[40] = test system: SW-620
[41] = test system: SN12C
[42] = test system: SK-MEL-2
[43] = test system: OVCAR-3
[44] = test system: NCI-H522
[45] = test system: OVCAR-8
[46] = test system: RXF 393
[47] = test system: HCT-116
[48] = test system: PC-3
[49] = test system: NCI/ADR-RES
[50] = test system: SR
[51] = test system: SNB-75
[52] = test system: A498
[53] = test system: U-251
[54] = test system: DU-145
[55] = test system: ACHN
[56] = test system: UACC-257
[57] = test system: M14
[58] = test system: MOLT-4
[59] = test system: Malme-3M

## CCCCCCCCCCCCCCC(C(=O)[O-])[n+]1ccccc1 (stereo not given)
[1]
  GI50: 15.1 µM (inactive)
[2]
  GI50: > 100 µM (inactive)
[3]
  GI50: 84.1 µM (inactive)
[4]
  GI50: > 100 µM (inactive)
[5]
  GI50: > 100 µM (inactive)
[6]
  GI50: > 100 µM (inactive)
[7]
  GI50: > 100 µM (inactive)
[8]
  GI50: > 100 µM (inactive)
[9]
  GI50: 77.3 µM (inactive)
[10]
  GI50: > 100 µM (inactive)
[11]
  GI50: > 100 µM (inactive)
[12]
  GI50: > 100 µM (inactive)
[13]
  GI50: > 100 µM (inactive)
[14]
  GI50: > 100 µM (inactive)
[15]
  GI50: > 100 µM (inactive)
[16]
  GI50: > 100 µM (inactive)
[17]
  GI50: > 100 µM (inactive)
[18]
  GI50: > 100 µM (inactive)
[19]
  GI50: > 100 µM (inactive)
[20]
  GI50: > 100 µM (inactive)
[21]
  GI50: > 100 µM (inactive)
[22]
  GI50: > 100 µM (inactive)
[23]
  GI50: > 100 µM (inactive)
[24]
  GI50: 98.4 µM (inactive)
[25]
  GI50: > 100 µM
[26]
  GI50: > 100 µM (inactive)
[27]
  GI50: > 100 µM (inactive)
[28]
  GI50: 16.1 µM (inactive)
[29]
  GI50: > 100 µM (inactive)
[30]
  GI50: > 100 µM (inactive)
[31]
  GI50: > 100 µM (inactive)
[32]
  GI50: > 100 µM (inactive)
[33]
  GI50: > 100 µM (inactive)
[34]
  GI50: > 100 µM (inactive)
[35]
  GI50: > 100 µM (inactive)
[36]
  GI50: > 100 µM (inactive)
[37]
  GI50: > 100 µM (inactive)
[38]
  GI50: 97.3 µM (inactive)
[39]
  GI50: > 100 µM (inactive)
[40]
  GI50: > 100 µM (inactive)
[41]
  GI50: 23.4 µM (inactive)
[42]
  GI50: > 100 µM (inactive)
[43]
  GI50: > 100 µM (inactive)
[44]
  GI50: > 100 µM (inactive)
[45]
  GI50: 98.6 µM (inactive)
[46]
  GI50: 20.4 µM (inactive)
[47]
  GI50: > 100 µM (inactive)
[48]
  GI50: 18.8 µM (inactive)
[49]
  GI50: > 100 µM (inactive)
[50]
  GI50: > 100 µM (inactive)
[51]
  GI50: > 100 µM (inactive)
[52]
  GI50: > 100 µM (inactive)
[53]
  GI50: 28.6 µM (inactive)
[54]
  GI50: > 100 µM (inactive)
[55]
  GI50: > 100 µM (inactive)
[56]
  GI50: > 100 µM (inactive)
[57]
  GI50: > 100 µM (inactive)
[58]
  GI50: > 100 µM (inactive)

## CC(=O)c1cccc(Nc2c3ccccc3nc3occc23)c1
[1]
  GI50: 16.2 µM (inactive)
[2]
  GI50: 12.5 µM (inactive)
[3]
  GI50: 37.2 µM (inactive)
[4]
  GI50: 3.3 µM (inactive)
[5]
  GI50: 2.54 µM (inactive)
[6]
  GI50: 4.08 µM (inactive)
[7]
  GI50: 5.15 µM (inactive)
[8]
  GI50: 10.6 µM (inactive)
[9]
  GI50: 9.04 µM (inactive)
[10]
  GI50: 2.67 µM (inactive)
[11]
  GI50: 2.48 µM (inactive)
[12]
  GI50: 2.58 µM (inactive)
[13]
  GI50: 12.3 µM (inactive)
[14]
  GI50: 16.1 µM (inactive)
[15]
  GI50: 22.8 µM (inactive)
[16]
  GI50: 10.8 µM (inactive)
[17]
  GI50: 11.7 µM (inactive)
[18]
  GI50: 5.04 µM (inactive)
[19]
  GI50: 9.93 µM (inactive)
[20]
  GI50: 5.14 µM (inactive)
[21]
  GI50: 0.438 µM (active)
[22]
  GI50: 3.34 µM (inactive)
[23]
  GI50: 10.9 µM (inactive)
[24]
  GI50: 3.48 µM (inactive)
[25]
  GI50: 3.99 µM
[26]
  GI50: 3.01 µM (inactive)
[27]
  GI50: 3.26 µM (inactive)
[28]
  GI50: 3.94 µM (inactive)
[29]
  GI50: 4.73 µM (inactive)
[30]
  GI50: 2.16 µM (inactive)
[31]
  GI50: 1.07 µM (active)
[32]
  GI50: 8.75 µM (inactive)
[33]
  GI50: 25.6 µM (inactive)
[34]
  GI50: 1.51 µM (inactive)
[35]
  GI50: 3.61 µM (inactive)
[36]
  GI50: 16.5 µM (inactive)
[37]
  GI50: 11.5 µM (inactive)
[38]
  GI50: 5.21 µM (inactive)
[39]
  GI50: 3.83 µM (inactive)
[41]
  GI50: 8.38 µM (inactive)
[42]
  GI50: 2.74 µM (inactive)
[43]
  GI50: 1.82 µM (inactive)
[44]
  GI50: 1.54 µM (inactive)
[45]
  GI50: 15.3 µM (inactive)
[46]
  GI50: 0.09 µM (active)
[47]
  GI50: 3.5 µM (inactive)
[48]
  GI50: 13 µM (inactive)
[49]
  GI50: 2.51 µM (inactive)
[50]
  GI50: 0.705 µM (active)
[52]
  GI50: 31.4 µM (inactive)
[53]
  GI50: 5.16 µM (inactive)
[59]
  GI50: 4.9 µM (inactive)
[54]
  GI50: 11 µM (inactive)
[55]
  GI50: 9.73 µM (inactive)
[56]
  GI50: 11.3 µM (inactive)
[57]
  GI50: 4.3 µM (inactive)
[58]
  GI50: 5.27 µM (inactive)
